The results in this text go back to patent publication US10694752B2 (priority 2016, dated 2020).

Values joined by “and” are separate entries in the source; they are usually repeats but may differ in a detail not shown here. Equal entries are not always repeated.

The test system of experiment [1] is wild type Chlorella sorokiniana. The experiment is described as follows: Growth of wild type Chlorella sorokiniana in the presence of propiconazole (OD at 750 nm). It counts as cell-based. Conditions: 10 μM propiconazole; FIG. 1. As for the experimental part: (§1) Chlorella sorokiniana cells (Wild type) and propiconazole resistant mutants of Chlorella species (PcZ-2) were inoculated at 0.1-0.15 OD@750 nm (each set in triplicates). To verify the effect of methanol (propiconazole was dissolved in methanol), one set was treated with 0.1% methanol. One set of flasks in triplicate of Wild type and PcZ-2 mutants were inoculated with and without 10 μM propiconazole. After inoculation flasks were kept in 12 h light/12 hour dark cycles of white light in an incubator shaker at 100 rpm. The temperature was 28° C., 70% humidity and 2% ambient CO2. 3 mL sample was removed each day, to determine the Optical density (OD) of the culture at 750 nm. The results obtained are as illustrated in FIG. 1.
(§2) FIG. 1 illustrates a graph of the growth comparison between wild type Chlorella sorokiniana and propiconazole resistant Chlorella sorokiniana mutant PcZ-2, in the presence of propiconazole, wherein A represents wild type Chlorella sorokiniana in the absence of propiconazole, B represents wild type Chlorella sorokiniana grown in the presence of 0.1% methanol, C represents wild type Chlorella sorokiniana grown in the presence of 10 μM propiconazole, D represents PcZ-2 grown in the absence of propiconazole, E represents PcZ-2 grown in the presence of 0.1% methanol, and F represents PcZ-2 grown in the presence of 10 μM propiconazole.

The subject of experiment [2] is propiconazole resistant Chlorella sorokiniana mutant PcZ-2 (CCAP 211/134). The experiment is described as follows: Growth of propiconazole resistant mutant PcZ-2 in the presence of propiconazole (OD at 750 nm). It counts as cell-based. Conditions: 10 μM propiconazole; for Average % increase PcZ-2 + 10 uM PcZ: average of triplicates, compared with wild type without propiconazole; for % increase PcZ-2 + 10 μM PcZ: growth of PcZ-2 compared with wild type without propiconazole, individual replicates, 28° C., listed as PcZ. The protocol: as §1, §2

As for `CCCC1COC(Cn2cncn2)(c2ccc(Cl)cc2Cl)O1` (centres unmarked) [propiconazole, Propiconazole], the “growth of wild type Chlorella sorokiniana culture in the presence of propiconazole” value in experiment [1] is given as “crashes after a few days”. For the same compound, in experiment [2] (FIG. 1), the “growth of PcZ-2 in the presence of propiconazole” value is “capable of growing”. For the same compound, the “Average % increase PcZ-2 + 10 uM PcZ” value in experiment [2] (day 4) was 62.66%; in experiment [2] (day 6) it was 20.01%; in experiment [2] (day 7), 21.07%. Moreover, the “% increase PcZ-2 + 10 μM PcZ” value in experiment [2] (day 4) is 52.73% and 66.67% and 68.57%; in experiment [2] (day 6) it was 13.33% and 28.96% and 17.75%; in experiment [2] (day 7) it was 10.64% and 29.37% and 23.19%.
